Results as given in patent US9044464B2, “No-releasing guanidine-coxib anti-cancer agents” (Euclises Pharmaceuticals, Inc., priority 2012, dated 2015).

System: PGE2 levels
Test: Rat Air-Pouch Model for Acute Inflammation (carrageenan challenge, exudate volume and PGE2 by ELISA)
Format: in vivo, Sprague-Dawley rats
Settings: for Volume (mL), collected exudate volume, mean / PGE2 (pg/mL) in exudate, mean: 0.01 mmol/kg oral gavage 2 h before intra-pouch 1% carrageenan, exudate collected 4 h after carrageenan; for Volume (mL), collected exudate volume, mean: 5 rats/group, vehicle mean 5.7; for PGE2 (pg/mL) in exudate, mean: ELISA, vehicle mean 4357.7; for reduction in exudate PGE2 release / reduction in collected exudate volume: 0.01 mmol/kg oral pretreatment, versus vehicle; for reduction in collected exudate volume: significant
Experimental: A study of celecoxib release from Example Compound 5 is assessed by measurement of PGE2 levels, which are indicative of inflammatory response.
Animals: Sprague-Dawley rats (Charles River Laboratories, R #3234, PO #738990, male, 160-180 g) were received, individually examined, and housed in cages of five rats each. The rats were ear notched for identification purposes.
Compounds and dosing solutions: The vehicle was prepared by dissolving 40 g (2-hydroxypropyl)-β-cyclodextrin (HP-β-CD, Sigma, Cat. 332593, lot MKBJ5858V) in 160 mL sterile saline for injection, USP (Hospira, lot 26-801-FW) making a […] solution which was filter sterilized (0.2 μm, Nalgene, Cat. 151-4020, lot 1095610). A 1% carrageenan solution was prepared by dissolving […] (Fluka, Cat. 22049, lot 1318338) in hot 60 mL sterile saline for injection, USP. This solution was stored at 4-8° C. Test compounds were dissolved in DMSO (Fisher Scientific, Cat. D128-500, lot 874999) to make 75 mM stocks. 0.25 mL of compound DMSO stocks were mixed with 12.5 mL of HP-β-CD solution at 50° C. (maximum DMSO concentration was 2% of the final volume of vehicle). Final concentration of all test compounds was 1.5 mM and compounds were dosed within 2 hours of preparation at 0.01 mmol/kg ([…] of test compound per rat).
Day 0—Air pouch initiation: The rats were anesthetized in a biological cabinet, the nape of the neck was cleansed with 70% isopropanol (Butler Schein Animal Health, Cat. 002498, lot 29EMS07104547) followed by 1% povidone-iodine solution (Ricca Chemical Co., Cat. 3955-16, lot 2205469). Twenty mL of sterile (0.22 μm, Millipore, Cat. SLGP033RS, lot R2KA55925, exp 08/2015) air was injected subcutaneously (SC) using a 23G×1½ inch needle fixed to a 20 mL syringe. The rats were returned to routine housing. No adverse reactions were observed.
Day 3—Air pouch maintenance: The rats were anesthetized in a biological cabinet, the nape of the neck was cleansed with 70% isopropanol followed by 1% povidone-iodine solution. Ten mL of sterile air was injected SC using a 23G×1½ inch needle fixed to a 20 mL syringe. The rats were returned to routine housing in clean cages. No adverse reactions were observed.
Day 6—Compound administration and carrageenan insult: At commencement of the study, each rat was weighed and sorted into treatment groups of 5 rats/group based upon average weight. Each rat was dosed orally via gavage at 6.809 mL/kg (1.6 mL/235 g) with their respective test material/vehicle. Two hours after test material/vehicle administration, the rats were injected with 1.0 mL of the room temperature 1% carrageenan saline solution into the air pouch. Four hours after carrageenan injection, the rats were anesthetized and 5 mL of the exudate buffer was injected into the air pouch. The pouch was gently massaged, the exudate immediately removed, and exudate volume recorded. The exudate was collected in a serum separator tube on an ice bath. The exudates were centrifuged (refrigerated) and an aliquot of the supernatant was stored in a labeled Eppendorf tube at −80° C.
Termination of Study: Animals were euthanized via CO2 asphyxiation at the completion of the in-life portion of this study and carcasses were disposed of according to standard protocols.
Data analysis: The exudate samples were thawed to room temperature and assayed by ELISA for PGE2 (R&D Systems, Cat. KGE004B, lot 307711). Statistical significance of treatments on mean exudate volumes are determined by comparison of means for treatment groups with vehicle group. Mean cytokine concentrations and standard deviations are determined for each group. Statistical significance of treatments on cytokine concentrations are determined for each compound group compared to vehicle group. Statistical significance (p-value) was calculated vs control groups by Student's t-Test.

Compound | Volume (mL), collected exudate volume, mean [mL] | PGE2 (pg/mL) in exudate, mean [pg/mL] | reduction in exudate PGE2 release [%] | reduction in collected exudate volume [%]
Cc1ccc(-c2cc(C(F)(F)F)nn2-c2ccc(S(=O)(=O)NC(=O)[C@@H](N)CCCNC(=N)N)cc2)cc1 [Example 5, (S)-2-Amino-5-guanidino-N-((4-(5-(p-tolyl)-3-(trifluoromethyl)-1H-pyrazol-1-yl)phenyl)sulfonyl)pentanamide] | 4.3 | 896.0 | 80 | 24
Cc1ccc(-c2cc(C(F)(F)F)nn2-c2ccc(S(N)(=O)=O)cc2)cc1 [celecoxib, 4-[5-(4-Methylphenyl)-3-(trifluoromethyl)-1H-pyrazol-1-yl]benzenesulfonamide] | 4.6 | 907.1 | 80 | 19
